Measured values from ChEMBL document CHEMBL1201862, “PubChem BioAssay data set” (2004).
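Method: 48-hour compound exposure of cells in 96-well plates, five concentrations, linear interpolation of endpoints. GI50 is the concentration that inhibits growth by half.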 Activity calls are given as the source filed them. No stated cut-off is given here; in the data, active = GI50 up to about 1.1 µM and inactive = higher.

Legend:
Assay in all cases: NCI anticancer screen, dose series, 48 h
BT-549 = tested on: BT-549
HCT-15 = tested on: HCT-15
U-251 = tested on: U-251
Hs-578T = tested on: Hs-578T
OVCAR-3 = tested on: OVCAR-3
HOP-62 = tested on: HOP-62
SK-MEL-5 = tested on: SK-MEL-5
NCI-H226 = tested on: NCI-H226
HL-60 = tested on: HL-60
RXF 393 = tested on: RXF 393
SR = tested on: SR
HT-29 = tested on: HT-29
SW-620 = tested on: SW-620
HOP-92 = tested on: HOP-92
A498 = tested on: A498
SF-268 = tested on: SF-268
SF-295 = tested on: SF-295
IGROV-1 = tested on: IGROV-1
RPMI-8226 = tested on: RPMI-8226
MOLT-4 = tested on: MOLT-4
OVCAR-5 = tested on: OVCAR-5
SN12C = tested on: SN12C
SF-539 = tested on: SF-539
UO-31 = tested on: UO-31
SNB-19 = tested on: SNB-19
HCT-116 = tested on: HCT-116
LOX IMVI = tested on: LOX IMVI
OVCAR-4 = tested on: OVCAR-4
K562 = tested on: K562
DU-145 = tested on: DU-145
Malme-3M = tested on: Malme-3M
MCF7 = tested on: MCF7
ACHN = tested on: ACHN
UACC-62 = tested on: UACC-62
NCI-H460 = tested on: NCI-H460
NCI/ADR-RES = tested on: NCI/ADR-RES
MDA-MB-231 = tested on: MDA-MB-231
M14 = tested on: M14
MDA-MB-435 = tested on: MDA-MB-435
CCRF-CEM = tested on: CCRF-CEM
COLO 205 = tested on: COLO 205
NCI-H23 = tested on: NCI-H23
MDA-N = tested on: MDA-N
SK-MEL-2 = tested on: SK-MEL-2
SK-MEL-28 = tested on: SK-MEL-28
T47D = tested on: T47D
UACC-257 = tested on: UACC-257
CAKI-1 = tested on: CAKI-1
A549 = tested on: A549
OVCAR-8 = tested on: OVCAR-8
SK-OV-3 = tested on: SK-OV-3
TK-10 = tested on: TK-10
PC-3 = tested on: PC-3
HCC 2998 = tested on: HCC 2998
786-0 = tested on: 786-0
SNB-75 = tested on: SNB-75
KM12 = tested on: KM12
NCI-H522 = tested on: NCI-H522
EKVX = tested on: EKVX

Compound: CCOC(=O)C1=C(C)NC(=O)N([N+](=O)[O-])C1c1ccccc1C(F)(F)F (configuration not stated)
- GI50 (BT-549): 54.6 µM (inactive)
- GI50 (HCT-15): 55.2 µM
- GI50 (U-251): 69 µM (inactive)
- GI50 (Hs-578T): 70.3 µM (inactive)
- GI50 (OVCAR-3): 47.5 µM (inactive)
- GI50 (HOP-62): 70.6 µM (inactive)
- GI50 (SK-MEL-5): 42.3 µM (inactive)
- GI50 (NCI-H226): > 100 µM (inactive)
- GI50 (HL-60): 55.2 µM (inactive)
- GI50 (RXF 393): 61 µM (inactive)
- GI50 (SR): 31.8 µM (inactive)
- GI50 (HT-29): 75.2 µM (inactive)
- GI50 (SW-620): 52.6 µM (inactive)
- GI50 (HOP-92): > 100 µM (inactive)
- GI50 (A498): > 100 µM (inactive)
- GI50 (SF-268): 53.1 µM (inactive)
- GI50 (SF-295): 57.7 µM (inactive)
- GI50 (IGROV-1): > 100 µM (inactive)
- GI50 (RPMI-8226): 23.4 µM (inactive)
- GI50 (MOLT-4): > 100 µM (inactive)
- GI50 (OVCAR-5): > 100 µM (inactive)
- GI50 (SN12C): > 100 µM (inactive)
- GI50 (SF-539): 28 µM (inactive)
- GI50 (UO-31): > 100 µM (inactive)
- GI50 (SNB-19): > 100 µM (inactive)
- GI50 (HCT-116): 35.7 µM (inactive)
- GI50 (LOX IMVI): 31 µM (inactive)
- GI50 (OVCAR-4): 27.2 µM (inactive)
- GI50 (K562): 72.6 µM (inactive)
- GI50 (DU-145): 94.2 µM (inactive)
- GI50 (Malme-3M): 24.3 µM (inactive)
- GI50 (MCF7): 52.6 µM (inactive)
- GI50 (ACHN): > 100 µM (inactive)
- GI50 (UACC-62): 49.4 µM (inactive)
- GI50 (NCI-H460): > 100 µM (inactive)
- GI50 (NCI/ADR-RES): 34.1 µM (inactive)
- GI50 (MDA-MB-231): > 100 µM (inactive)
- GI50 (M14): 43.5 µM (inactive)
- GI50 (MDA-MB-435): 45.1 µM (inactive)
- GI50 (CCRF-CEM): 26.6 µM (inactive)
- GI50 (COLO 205): > 100 µM (inactive)
- GI50 (NCI-H23): > 100 µM (inactive)
- GI50 (MDA-N): 21.8 µM (inactive)
- GI50 (SK-MEL-2): > 100 µM (inactive)
- GI50 (SK-MEL-28): 24.8 µM (inactive)
- GI50 (T47D): 35.4 µM (inactive)
- GI50 (UACC-257): > 100 µM (inactive)
- GI50 (CAKI-1): 23.1 µM (inactive)
- GI50 (A549): > 100 µM (inactive)
- GI50 (OVCAR-8): 69.7 µM (inactive)
- GI50 (SK-OV-3): > 100 µM (inactive)
- GI50 (TK-10): 98.2 µM (inactive)
- GI50 (PC-3): 33.3 µM (inactive)

Compound: CN/C(=N\N)NS(=O)(=O)c1cc(C)c(Cl)cc1S
- GI50 (BT-549): 38.5 µM (inactive)
- GI50 (HCT-15): 48.2 µM
- GI50 (U-251): 64.1 µM (inactive)
- GI50 (Hs-578T): 20.6 µM (inactive)
- GI50 (OVCAR-3): 57.5 µM (inactive)
- GI50 (HOP-62): > 100 µM (inactive)
- GI50 (SK-MEL-5): 30.7 µM (inactive)
- GI50 (NCI-H226): > 100 µM (inactive)
- GI50 (HCC 2998): 87.7 µM (inactive)
- GI50 (HL-60): 41.5 µM (inactive)
- GI50 (RXF 393): 33.4 µM (inactive)
- GI50 (SR): 44 µM (inactive)
- GI50 (HT-29): 40.4 µM (inactive)
- GI50 (SW-620): 48.5 µM (inactive)
- GI50 (HOP-92): 75.2 µM (inactive)
- GI50 (SF-268): > 100 µM (inactive)
- GI50 (786-0): 27.3 µM (inactive)
- GI50 (IGROV-1): 86.3 µM (inactive)
- GI50 (RPMI-8226): 74 µM (inactive)
- GI50 (MOLT-4): > 10 µM (inactive)
- GI50 (OVCAR-5): 93.5 µM (inactive)
- GI50 (SN12C): > 100 µM (inactive)
- GI50 (SF-539): > 100 µM (inactive)
- GI50 (UO-31): 25.1 µM (inactive)
- GI50 (SNB-19): > 100 µM (inactive)
- GI50 (HCT-116): 66.5 µM (inactive)
- GI50 (LOX IMVI): 96.4 µM (inactive)
- GI50 (OVCAR-4): > 100 µM (inactive)
- GI50 (K562): 49.2 µM (inactive)
- GI50 (DU-145): > 100 µM (inactive)
- GI50 (Malme-3M): 46.8 µM (inactive)
- GI50 (MCF7): 62.4 µM (inactive)
- GI50 (UACC-62): 53.7 µM (inactive)
- GI50 (NCI/ADR-RES): > 100 µM (inactive)
- GI50 (MDA-MB-231): > 100 µM (inactive)
- GI50 (M14): 54.5 µM (inactive)
- GI50 (SNB-75): > 100 µM (inactive)
- GI50 (MDA-MB-435): 43.5 µM (inactive)
- GI50 (CCRF-CEM): 43.6 µM (inactive)
- GI50 (COLO 205): > 100 µM (inactive)
- GI50 (KM12): 76 µM (inactive)
- GI50 (MDA-N): > 100 µM (inactive)
- GI50 (NCI-H522): 25.2 µM (inactive)
- GI50 (SK-MEL-2): 69.2 µM (inactive)
- GI50 (SK-MEL-28): > 100 µM (inactive)
- GI50 (T47D): 24.4 µM (inactive)
- GI50 (UACC-257): > 100 µM (inactive)
- GI50 (CAKI-1): 45.8 µM (inactive)
- GI50 (A549): 29.9 µM (inactive)
- GI50 (OVCAR-8): 96.2 µM (inactive)
- GI50 (SK-OV-3): > 100 µM (inactive)
- GI50 (TK-10): 77.4 µM (inactive)
- GI50 (PC-3): > 100 µM (inactive)
- GI50 (EKVX): 81.7 µM (inactive)
